A word on the MIC: it is the least concentration at which growth counts as inhibited.

Data on three compounds can be found in PMC9886550, “Molecular mechanism of topoisomerase poisoning by the peptide antibiotic albicidin” (Nature Catalysis, 2023).

One series deals with T1, WT E. coli gyrase (Escherichia coli, UniProt P0AES4+P0AES6).
T1 construct: alternative cryo-EM approach involving full-length E. coli gyrase; 10-His (cleaved yes); Twin-Strep (cleaved yes); made in house
The experiment in a line: biochemical. The series is classed as biochemical. Particulars: for % maximal cleavage: GyraseWT, average of 3 independent assays; for EC50: Gyrase^WT, mean ± s.d. of triplicate, read-out: CC50 (the source's name); for % cleaved DNA Average: WT Gyrase. As to the method: (§1) For DNA gyrase supercoiling assays to characterize gyrase mutants, 15 µl reactions were set up containing 250 ng of relaxed DNA, E. coli gyrase supercoiling buffer (35 mM Tris–Cl pH 7.5, 24 mM KCl, 4 mM MgCl2, 2 mM DTT, 1.8 mM spermidine, 1 mM ATP, 6.0% (w/v) glycerol, and 0.1 mg ml^−1 BSA), gyrase subunits and inhibitors. Concentrations of enzyme and inhibitor are stated in the figure legends. Inhibitors were diluted in the following way to reduce the chance of precipitation: stock compound in 100% DMSO was diluted to 5 mM in 100% DMSO. This compound solution was diluted to 1 mM by stepwise addition of 1 µl of 50% DMSO with thorough mixing via pipetting after each addition. All subsequent dilutions up to 100 µM were performed in the same way using H2O. After this point, compounds were stable and could be diluted in the normal way. Reactions were incubated at 37 °C for 30 min before stopping with 15 µl chloroform:isoamyl alcohol (24:1 v/v) and 15 µl of STEB (40% (w/v) sucrose, 100 mM Tris–Cl pH 8, 10 mM EDTA, 0.5 mg ml^−1 bromophenol blue).
(§2) Cleavage assays were set up in the same way as supercoiling assays with some modifications. The concentration of enzyme was increased 4-fold relative to the supercoiling assay and reactions were incubated for 1 h before addition of 0.2% SDS and proteinase K (0.2 mg ml^−1) and further incubation at 37 °C for 30 min to trap cleavage complexes. Reactions were stopped in the same way as supercoiling assays.
(§3) Results were visualized by agarose gel electrophoresis: 1% agarose Tris-acetate-EDTA (TAE) gels were run without ethidium bromide (supercoiling) or with 10 µg ml^−1 ethidium bromide (cleavage) at 8 V cm^−1.
(§4) DNA cleavage gels were analysed using densitometry (ImageJ). Experiments were carried out in triplicate and expressed as mean ± s.d. Curves were fitted using OriginPro 2021 (Origin Lab) according to a modified Hill equation:1 y=cI+(cF−cI)[…]/(k^n+x^n) where y is the percentage of cleaved DNA, cI is the initial cleavage, cF is the final cleavage, k is the CC50 (the concentration of inhibitor that results in cleavage of 50% of DNA), n is a slope factor and x is the inhibitor concentration.

The test system of another series is B. subtilis DSM10. The experiment in a line: MIC determination (microdilution, M07-A9). The series is classed as cell-based. Particulars: Bacillus subtilis. Here is the method:
(§5) MIC values were determined according to the ninth edition of the Approved Standard M07-A9. The test was carried out for six different bacterial strains (E. coli DSM 1116 (Gram-negative), E. coli BW25113 (Gram-negative), B. subtilis DSM 10 (Gram-positive), M. luteus DSM 1790 (Gram-positive), M. phlei DSM 750 (Gram-positive), S. typhimurium TA 100 (Gram-negative). First, 20 µl of glycerol stock of each strain was inoculated in 20 ml LB (Lennox) followed by incubation overnight at 37 °C, 200 r.p.m. The test inoculum was adjusted by the 0.5 McFarland Standard. Within 15 min of preparation, the adjusted inoculum suspension was diluted in MHBII so that each well contained approximately 5 × 10^5 c.f.u. ml^−1 in a final volume of 100 µl. Then, 95 µl of the inoculum was applied per well and 5 µl of the (diluted) albicidins was added. For dilutions, the dry powders were dissolved in dimethylsulfoxide (DMSO) with a concentration of 2.56 mg ml^−1, and the obtained stock solutions were further diluted in DMSO. Next, 5 µl of each antibiotic dilution was applied to the microdilution tray to reach final concentrations of 8 to 0.016 µg ml^−1. One row of each well plate served as a growth control without antibiotic and another row of the microdilution tray served as a sterility control (only MHBII media). The antimicrobial effect of the solvent was tested by adding 5 µl DMSO to several wells. Purity check and cell titre control were performed according to International Standard M07-A9 on Mueller–Hinton II Agar. Both microdilution trays and agar plates were incubated at 37 °C for 20 h.

In a further series the test system is S. typhimurium TA100. The experiment in a line: MIC determination (microdilution, M07-A9). The series is classed as cell-based. As to the method: as §5
In general terms: In broth dilution the organism is exposed to a series of concentrations in liquid medium.

The next series relates to E. coli BW25113. The series can be described thus: MIC determination (microdilution, M07-A9). Format: cell-based. Here is the method:
as §5

For the next series, the system named is M. phlei DSM750. The experiment in a line: MIC determination (microdilution, M07-A9). Format: cell-based. Particulars: Mycolicibacterium phlei. As to the method:
as §5

For the next series, the target named is T2, E. coli gyrase GyrA^S83L (Escherichia coli, UniProt P0AES4+P0AES6, S83L).
T2 construct: alternative cryo-EM approach involving full-length E. coli gyrase; 10-His (cleaved yes); Twin-Strep (cleaved yes); made in house
The experiment in a line: DNA gyrase cleavage assay (CC50, % cleaved DNA). Format: biochemical. Particulars: for % maximal cleavage: GyrAS83L, average of 3 independent assays; for EC50: GyrA^S83L, mean ± s.d. of triplicate. As to the method:
as §1, §2, §3, §4

Another series deals with T3, E. coli gyrase GyrA^V70A (Escherichia coli, UniProt P0AES4+P0AES6, V70A).
T3 construct: alternative cryo-EM approach involving full-length E. coli gyrase; 10-His (cleaved yes); Twin-Strep (cleaved yes); made in house
The series can be described thus: DNA gyrase cleavage assay (CC50, % cleaved DNA). The series is classed as biochemical. Particulars: for % maximal cleavage: GyrAV70A, average of 3 independent assays; for EC50: GyrA^V70A, mean ± s.d. of triplicate. Here is the method: as §1, §2, §3, §4

Series [1] has as its target T4, E. coli gyrase GyrA^M120A (Escherichia coli, UniProt P0AES4+P0AES6, M120A).
T4 construct: alternative cryo-EM approach involving full-length E. coli gyrase; 10-His (cleaved yes); Twin-Strep (cleaved yes); made in house
The series can be described thus: DNA gyrase cleavage assay (CC50, % cleaved DNA). The settings on record: for % maximal cleavage: GyrAM120A, average of 3 independent assays; for EC50: GyrA^M120A, mean ± s.d. of triplicate. Format: biochemical. As to the method: as §1, §2, §3, §4

Series [2] concerns the target T5, E. coli gyrase GyrB^K447W (Escherichia coli, UniProt P0AES4+P0AES6, K447W).
T5 construct: alternative cryo-EM approach involving full-length E. coli gyrase; 10-His (cleaved yes); Twin-Strep (cleaved yes); made in house
The series can be described thus: DNA gyrase cleavage assay (CC50, % cleaved DNA). The settings on record: for % maximal cleavage: GyrBK447W, average of 3 independent assays; for EC50: GyrB^K447W, mean ± s.d. of triplicate. The series is classed as biochemical. Here is the method: as §1, §2, §3, §4

The target in a further series is T6, E. coli gyrase GyrA^A67Q (Escherichia coli, UniProt P0AES4+P0AES6, A67Q).
T6 construct: alternative cryo-EM approach involving full-length E. coli gyrase; 10-His (cleaved yes); Twin-Strep (cleaved yes); made in house
The experiment in a line: DNA gyrase cleavage assay (CC50, % cleaved DNA). The series is classed as biochemical. The settings on record: for % maximal cleavage: GyrAA67Q, average of 3 independent assays; for EC50: GyrA^A67Q, mean ± s.d. of triplicate. Here is the method:
as §1, §2, §3, §4

The mark [3] stands for this setting: first value in cell (biological replicate).
The mark [4] stands for this setting: second value in cell (biological replicate).
The mark [5] stands for this setting: Salmonella enterica, first value in cell (biological replicate), read-out: MIC.
[6] abbreviates: E. coli BW25113, second value in cell (biological replicate).
Where [7] appears, read: Escherichia coli, BW25113, E. coli strain not named, read-out: MIC for E. coli.
Where [8] appears, read: Escherichia coli, E. coli BW25113, first value in cell (biological replicate), read-out: MIC.

≈ marks a conversion by molar mass, not a printed value. Where “and” joins values, the source holds several entries; their conditions need not be identical. Equal values may be shown once. Read-outs that look alike come from different tables or passages of the source. Bounds are passed on as bounds.

For the compound `CC(C)Oc1c(NC(=O)c2ccc(NC(=O)[C@H](Cc3c[nH]nn3)NC(=O)c3ccc(NC(=O)c4ccc(C#N)cc4)cn3)cn2)ccc(C(=O)Nc2ccc(C(=O)O)cc2)c1O` [Albi-1], the “% maximal cleavage” value on WT E. coli gyrase is reported as 73±6%; at E. coli gyrase GyrA^S83L, 80±14%; on E. coli gyrase GyrA^V70A, 90±2%; in [1], 68±3%; in series [2], 83±3%; on E. coli gyrase GyrA^A67Q, 96±8%. For the same compound, the EC50 on WT E. coli gyrase came out at 8 ± 2.7 nM; on E. coli gyrase GyrA^S83L, 10 ± 1.5 nM; at E. coli gyrase GyrA^V70A, 16 ± 1.3 nM; in series [1], 15 ± 1.5 nM; in series [2], 412 ± 88 nM; at E. coli gyrase GyrA^A67Q it was 181 ± 67 nM. Besides, the MIC with B. subtilis DSM10 (setting [3]) is 0.031 µg/mL (≈ 0.037 µM); against B. subtilis DSM10 (setting [4]), 0.063 µg/mL (≈ 0.0752 µM); in the series with S. typhimurium TA100 (setting [5]) it was less than 0.016 µg/mL; against S. typhimurium TA100 (setting [4]), <0.016 <0.016 µg ml^−1; in the series with E. coli BW25113 (setting [6]), <0.016 <0.016 µg ml^−1; in the series on E. coli BW25113 (setting [7]) it was not above 0.016 µg/mL. Further, the results for the MIC in the series on E. coli BW25113 (setting [8]), in the series with M. phlei DSM750 (setting [3]) and in the series on M. phlei DSM750 (setting [4]) were less than 0.016 µg/mL, 0.25 µg/mL (≈ 0.298 µM) and 0.5 µg/mL (≈ 0.597 µM), respectively. In addition, in [2] (GyrB^K447W vs WT gyrase, 60 min), the “increase in CC50” value was “more than 50 fold”.
On to `COc1c(NC(=O)c2ccc(NC(=O)c3ccc(NC(=O)[C@H](Cc4c[nH]nn4)NC(=O)c4ccc(NC(=O)c5ccc6cc(O)ccc6c5)cc4)cn3)c(OCCN)c2O)ccc(C(=O)O)c1O` [Albi-2], for which the “% maximal cleavage” value at WT E. coli gyrase turned out to be 78±2%; on E. coli gyrase GyrA^S83L it was 72±7%; on E. coli gyrase GyrA^V70A, 58±2%; in [1], 59±17%; in [2], 59±6%. The MIC against B. subtilis DSM10 (setting [3]) was more than 8 µg/mL; against B. subtilis DSM10 (setting [4]), more than 8 µg/mL; with S. typhimurium TA100 (setting [5]), 0.5 µg/mL (≈ 0.541 µM); against S. typhimurium TA100 (setting [4]), 0.5 µg/mL (≈ 0.541 µM); in the series on E. coli BW25113 (setting [6]), 4.0 µg/mL (≈ 4.32 µM); in the series with E. coli BW25113 (setting [7]), 4 µg/mL (≈ 4.32 µM). For the same compound, the MIC in the series with E. coli BW25113 (setting [8]) was 4 µg/mL (≈ 4.32 µM); with M. phlei DSM750 (setting [3]), more than 8 µg/mL; in the series on M. phlei DSM750 (setting [4]) it was more than 8 µg/mL. The “increase in MIC for E. coli compared with the parent compound” value in the series on E. coli BW25113 (vs albicidin) is reported as 60 fold. Further, the EC50 at E. coli gyrase GyrA^S83L amounted to 208 ± 34 nM; at E. coli gyrase GyrA^V70A, 189 ± 49 nM; in [1], 160 ± 15 nM; in series [2] it was 251 ± 40 nM.
In the case of `COc1c(NC(=O)c2ccc(NC(=O)c3ccc(NC(=O)[C@H](Cc4c[nH]nn4)NC(=O)c4ccc(NC(=O)c5ccc6nc(C)ccc6c5)cc4)cn3)c(OC)c2O)ccc(C(=O)O)c1O` [Albi-3], the “% cleaved DNA Average” value was determined as 5.372% at WT E. coli gyrase (Albi-3 0.001 µM); 11.5375% at WT E. coli gyrase (Albi-3 0.005 µM); 23.6152% on WT E. coli gyrase (Albi-3 0.01 µM); 37.3347% at WT E. coli gyrase (Albi-3 0.05 µM); 57.4394% at WT E. coli gyrase (Albi-3 0.1 µM); 62.8438% on WT E. coli gyrase (Albi-3 0.5 µM). Besides, the “% cleaved DNA Average” value is 66.0682% on WT E. coli gyrase (Albi-3 1 µM), 61.2004% at WT E. coli gyrase (Albi-3 5 µM) and 61.7202% on WT E. coli gyrase (Albi-3 10 µM). The “% maximal cleavage” value is 66±4% on WT E. coli gyrase; 85±7% on E. coli gyrase GyrA^S83L; 63±2% at E. coli gyrase GyrA^V70A; 69±2% and 69% in [2]; 78±6% at E. coli gyrase GyrA^A67Q. Further, the EC50 at WT E. coli gyrase was determined as 25 ± 5.3 nM; at E. coli gyrase GyrA^S83L, 16 ± 4 nM; at E. coli gyrase GyrA^V70A it was 36 ± 8.6 nM; at E. coli gyrase GyrA^A67Q, 328 ± 19 nM. Further, the MIC is 0.063 µg/mL (≈ 0.0704 µM) against B. subtilis DSM10 (setting [3]); 0.125 µg/mL (≈ 0.14 µM) against B. subtilis DSM10 (setting [4]); less than 0.016 µg/mL in the series with S. typhimurium TA100 (setting [5]); <0.016 <0.016 µg ml^−1 in the series with S. typhimurium TA100 (setting [4]); <0.016 <0.016 µg ml^−1 against E. coli BW25113 (setting [6]); less than 0.016 µg/mL with E. coli BW25113 (setting [7]). Further, the results for the MIC in the series with E. coli BW25113 (setting [8]), in the series on M. phlei DSM750 (setting [3]) and in the series on M. phlei DSM750 (setting [4]) were less than 0.016 µg/mL, 0.5 µg/mL (≈ 0.559 µM) and 1 µg/mL (≈ 1.12 µM), respectively.
